The species named for one assay is Homo sapiens. The experiment in a line: Compound was tested for Leukotriene B4-mediated Up-regulation of human neutrophil CD11b/CD18. It is filed as functional.
Assay [1] concerns the target Leukotriene B4 receptor 1 (Homo sapiens, UniProt Q15722). The experiment in a line: LTB4 receptor antagonist activity was determined by inhibition of specific binding of [3H]LTB4 in human neutrophil.
Assay [2] can be described thus: LTB4 receptor antagonist activity was determined by inhibition of specific binding of [3H]LTB4 in guinea pig lung membranes.

Sequence of Leukotriene B4 receptor 1 (Q15722 whole entry): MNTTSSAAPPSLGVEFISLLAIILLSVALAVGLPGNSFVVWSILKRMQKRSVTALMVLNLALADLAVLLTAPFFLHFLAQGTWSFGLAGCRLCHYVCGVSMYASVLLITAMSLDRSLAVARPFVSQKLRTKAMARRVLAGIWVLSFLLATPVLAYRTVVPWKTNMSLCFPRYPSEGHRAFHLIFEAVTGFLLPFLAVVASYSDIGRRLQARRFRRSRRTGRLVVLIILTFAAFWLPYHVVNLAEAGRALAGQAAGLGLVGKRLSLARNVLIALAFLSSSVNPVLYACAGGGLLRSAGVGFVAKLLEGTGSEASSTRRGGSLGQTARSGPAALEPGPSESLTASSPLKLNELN

For `CCc1cc(-c2ccc(F)cc2)c(O)cc1OCCCOc1cc(Oc2ccc(C(=O)O)cc2)ccc1CCC(=O)O`, in the assay filed under Homo sapiens, the midpoint of inhibition, the IC50, lay at 1800 nM. In assay [1], this molecule yielded a Ki of 39 nM. In the case of `CCc1cc(-c2ccc(F)cc2)c(O)cc1OCCCOc1cccc(Oc2ccc(C(=O)O)cc2)c1CCC(=O)O`, the IC50 in the assay filed under Homo sapiens stood at 2.6 nM. In the assay listed under Homo sapiens, `CCc1cc(-c2ccc(F)cc2)c(O)cc1OCCCOc1ccc(C#CCCC(=O)O)cc1CCC(=O)O` had an IC50 of 4.7 nM.

In assay [2], `CCc1cc(-c2ccc(F)cc2)c(O)cc1OCCCOc1ccc2c(=O)c3cc(C(=O)O)ccc3oc2c1CCC(=O)O` yielded a Ki of 0.04 nM. This lies in the picomolar range.

The term IC50 denotes the concentration that inhibits the measured activity by half. A low value points to greater potency in that assay. One may read the Ki as the equilibrium dissociation constant of an inhibitor or competing ligand from its target. Lower therefore signals a stronger hold on the target.

These data come from ChEMBL document CHEMBL1150505 (Bioorg Med Chem Lett, 1994).
